In US10183022B2, “Pharmaceutical composition for treating ulcerative colitis” (EA Pharma Co., Ltd., priority 2014, dated 2019):

Test system: ulcerative colitis patients in an active stage
Test: Clinical study, 960 mg orally 3 times a day for 8 weeks: subscore for stool frequency of Mayo score
Assay type: in vivo, human
Parameters: Cases by subscore for stool frequency, figure in parentheses: unit not given here
Description: The compound of Example 1 or the compound of Comparative Example 1 was orally administered after meals 3 times a day. The number of the given tablets was 8 per administration (i.e., the amount of the compound (1) of Example 1 administered was 960 mg per administration). The administration period was 8 weeks. The compounds were administered until the timing after the breakfast on the day before the assessment day at Week 8.
[Investigation Timings: Weeks 0, 2, 4, and 8 (or Discontinuation Time)]
Based on the contents described in the symptom-recording diaries and so on, the investigators or sub-investigators investigated stool frequencies in 3 days immediately before each assessment day. Note that when the endoscopic examination on the large intestine was conducted, the investigation days were set to be the closest three days excluding the day of the endoscopic examination on the large intestine, the following day, and if a pre-treatment was performed for the endoscopic examination on the large intestine, the pre-treatment day.
The investigators or sub-investigators investigated the stool frequency per day before the primary disease appeared, which served as a “normal frequency.” An average value (rounded to the nearest whole number) of the stool frequencies of the investigated three days was compared with the “normal frequency,” and scored according to the following criteria.

SMILES: COC(=O)[C@H](Cc1ccc(-n2c(=O)c3cc(N(C)C)ccc3n(C)c2=O)cc1)NC(=O)c1c(Cl)cccc1Cl [Example 1, methyl(2S)-2-(2,6-dichlorobenzamide)-3-{4-[6-(dimethylamino)-1-methyl-2,4-dioxo-1,4-dihydroquinazolin-3(2H)-yl]phenyl}propanoate]
- Cases by subscore for stool frequency, figure in parentheses (Week 0, score 0): 3.9
- Number of cases by subscore for stool frequency (Week 0, score 0): 2
- Cases by subscore for stool frequency, figure in parentheses (Week 0, score 1): 17.6
- Number of cases by subscore for stool frequency (Week 0, score 1): 9
- Cases by subscore for stool frequency, figure in parentheses (Week 0, score 2): 41.2
- Number of cases by subscore for stool frequency (Week 0, score 2): 21
- Cases by subscore for stool frequency, figure in parentheses (Week 0, score 3): 37.3
- Number of cases by subscore for stool frequency (Week 0, score 3): 19
- Cases by subscore for stool frequency, figure in parentheses (Week 2, score 0): 9.8
- Number of cases by subscore for stool frequency (Week 2, score 0): 5
- Cases by subscore for stool frequency, figure in parentheses (Week 2, score 1): 25.5
- Number of cases by subscore for stool frequency (Week 2, score 1): 13
- Cases by subscore for stool frequency, figure in parentheses (Week 2, score 2): 49.0
- Number of cases by subscore for stool frequency (Week 2, score 2): 25
- Cases by subscore for stool frequency, figure in parentheses (Week 2, score 3): 15.7
- Number of cases by subscore for stool frequency (Week 2, score 3): 8
- Number of cases, cross tabulation of subscore for stool frequency (Week 2 score 0, Week 0 score 0): 2
- Number of cases, cross tabulation of subscore for stool frequency (Week 2 score 0, Week 0 score 1): 1
- Number of cases, cross tabulation of subscore for stool frequency (Week 2 score 0, Week 0 score 2): 1
- Number of cases, cross tabulation of subscore for stool frequency (Week 2 score 0, Week 0 score 3): 1
- Number of cases, cross tabulation of subscore for stool frequency (Week 2 score 1, Week 0 score 0): 0
- Number of cases, cross tabulation of subscore for stool frequency (Week 2 score 1, Week 0 score 1): 6
- Number of cases, cross tabulation of subscore for stool frequency (Week 2 score 1, Week 0 score 2): 5
- Number of cases, cross tabulation of subscore for stool frequency (Week 2 score 1, Week 0 score 3): 2
- Number of cases, cross tabulation of subscore for stool frequency (Week 2 score 2, Week 0 score 0): 0
- Number of cases, cross tabulation of subscore for stool frequency (Week 2 score 2, Week 0 score 1): 2
- Number of cases, cross tabulation of subscore for stool frequency (Week 2 score 2, Week 0 score 2): 15
- Number of cases, cross tabulation of subscore for stool frequency (Week 2 score 2, Week 0 score 3): 8
- Number of cases, cross tabulation of subscore for stool frequency (Week 2 score 3, Week 0 score 0): 0
- Number of cases, cross tabulation of subscore for stool frequency (Week 2 score 3, Week 0 score 1): 0
- Number of cases, cross tabulation of subscore for stool frequency (Week 2 score 3, Week 0 score 2): 0
- Number of cases, cross tabulation of subscore for stool frequency (Week 2 score 3, Week 0 score 3): 8
- Cases by subscore for stool frequency, figure in parentheses (Week 4, score 0): 11.8
- Number of cases by subscore for stool frequency (Week 4, score 0): 6
- Cases by subscore for stool frequency, figure in parentheses (Week 4, score 1): 47.1
- Number of cases by subscore for stool frequency (Week 4, score 1): 24
- Cases by subscore for stool frequency, figure in parentheses (Week 4, score 2): 25.5
- Number of cases by subscore for stool frequency (Week 4, score 2): 13
- Cases by subscore for stool frequency, figure in parentheses (Week 4, score 3): 15.7
- Number of cases by subscore for stool frequency (Week 4, score 3): 8
- Number of cases, cross tabulation of subscore for stool frequency (Week 4 score 0, Week 0 score 0): 2
- Number of cases, cross tabulation of subscore for stool frequency (Week 4 score 0, Week 0 score 1): 1
- Number of cases, cross tabulation of subscore for stool frequency (Week 4 score 0, Week 0 score 2): 3
- Number of cases, cross tabulation of subscore for stool frequency (Week 4 score 0, Week 0 score 3): 0
- Number of cases, cross tabulation of subscore for stool frequency (Week 4 score 1, Week 0 score 0): 0
- Number of cases, cross tabulation of subscore for stool frequency (Week 4 score 1, Week 0 score 1): 7
- Number of cases, cross tabulation of subscore for stool frequency (Week 4 score 1, Week 0 score 2): 12
- Number of cases, cross tabulation of subscore for stool frequency (Week 4 score 1, Week 0 score 3): 5
- Number of cases, cross tabulation of subscore for stool frequency (Week 4 score 2, Week 0 score 0): 0
- Number of cases, cross tabulation of subscore for stool frequency (Week 4 score 2, Week 0 score 1): 1
- Number of cases, cross tabulation of subscore for stool frequency (Week 4 score 2, Week 0 score 2): 6
- Number of cases, cross tabulation of subscore for stool frequency (Week 4 score 2, Week 0 score 3): 6
- Number of cases, cross tabulation of subscore for stool frequency (Week 4 score 3, Week 0 score 0): 0
- Number of cases, cross tabulation of subscore for stool frequency (Week 4 score 3, Week 0 score 1): 0
- Number of cases, cross tabulation of subscore for stool frequency (Week 4 score 3, Week 0 score 2): 0
- Number of cases, cross tabulation of subscore for stool frequency (Week 4 score 3, Week 0 score 3): 8
- Cases by subscore for stool frequency, figure in parentheses (Week 8, score 0): 21.6
- Number of cases by subscore for stool frequency (Week 8, score 0): 11
- Cases by subscore for stool frequency, figure in parentheses (Week 8, score 1): 45.1
- Number of cases by subscore for stool frequency (Week 8, score 1): 23
- Cases by subscore for stool frequency, figure in parentheses (Week 8, score 2): 17.6
- Number of cases by subscore for stool frequency (Week 8, score 2): 9
- Cases by subscore for stool frequency, figure in parentheses (Week 8, score 3): 15.7
- Number of cases by subscore for stool frequency (Week 8, score 3): 8
